Reference: patent publication US20040115249A1, “Ionic compounds of quaternary ammonium cations with anions of preservation acids, preparation thereof, and use thereof for preservation” (priority 2002, published 2004)

System: microorganisms from different sectors (molds, yeasts, bacteria)
Text: The product obtained in example 2 was used in a test of antimicrobial activity.

n-alkyldimethylethylbenzylammonium Sorbate [Example 2]
minimum inhibitory concentrations: Very low
